Results published in patent US10167262B2, “Herbicidal substituted 3-arylpyrazoles” (FMC CORPORATION, priority 2014, dated 2019).

How the values were obtained:
Test in all cases: Test E pre-/postemergence greenhouse test, plant response rating 0-100
Assay type in all cases: in vivo
[1] = system: Brazilian crabgrass (Digitaria horizontalis); conditions: Postemergence, scale 0 to 100
Source text: (§1) Seeds of plant species selected from corn (Zea mays), soybean (Glycine max), velvetleaf (Abutilon theophrasti), lambsquarters (Chenopodium album), wild poinsettia (Euphorbia heterophylla), palmer pigweed (Amaranthus palmeri), waterhemp (common waterhemp, Amaranthus rudis), surinam grass (Brachiaria decumbens), large (Lg) crabgrass (Digitaria sanguinalis), Brazilian crabgrass (Digitaria horizontalis), fall panicum (Panicum dichotomiflorum), giant foxtail (Setaria faberii), green foxtail (Setaria viridis), goosegrass (Eleusine indica), johnsongrass (Sorghum halepense), ragweed (common ragweed, Ambrosia elatior), barnyardgrass (Echinochloa crus-galli), sandbur (southern sandbur, Cenchrus echinatus), arrowleaf sida (Sida rhombifolia), Italian ryegrass (Lolium multiflorum), dayflower (Virginia (VA) dayflower, Commelina virginica), field bindweed (Convolvulus arvensis), morningglory (Ipomoea coccinea), nightshade (eastern black nightshade, Solanum ptycanthum), kochia (Kochia scoparia), yellow nutsedge (Cyperus esculentus), smartweed (ladysthumb smartweed, Polygonum persicaria), cocklebur (common cocklebur, Xanthium strumarium), and hairy beggarticks (Bidens pilosa), were planted into a silt loam soil and treated preemergence with test chemicals formulated in a non-phytotoxic solvent mixture which included a surfactant.
(§2) At the same time, plants from these crop and weed species and also waterhemp_RES1, (ALS & Triazine resistant common waterhemp, Amaranthus rudis), and waterhemp_RES2, (ALS & HPPD resistant common waterhemp, Amaranthus rudis) were planted in pots containing Redi-Earth® planting medium (Scotts Company, 14111 Scottslawn Road, Marysville, Ohio 43041) comprising spaghnum peat moss, vermiculite, wetting agent and starter nutrients were treated with postemergence applications of test chemicals formulated in the same manner. Plants ranged in height from 2 to 18 cm for postemergence treatments (1- to 4-leaf stage).
(§3) Treated plants and controls were maintained in a greenhouse for 14 to 21 days, after which time all species were compared to controls and visually evaluated. Plant response ratings, summarized in Table E, are based on a scale of 0 to 100 where 0 is no effect and 100 is complete control. A dash (-) response means no test result.

[2] = system: arrowleaf sida (Sida rhombifolia); conditions: for Plant response rating, Arrowleaf Sida: Postemergence; for Arrowleaf Sida plant response rating: Preemergence
Source text: as §1, §2, §3

[3] = system: hairy beggarticks (Bidens pilosa); conditions: scale 0 to 100; for Plant response rating, Beggarticks: Postemergence; for Beggarticks plant response rating: Preemergence
Source text: as §1, §2, §3

soybean (Glycine max) = conditions: scale 0 to 100; for Plant response rating, Soybean: Postemergence; for Soybean plant response rating: Preemergence
Source text: as §1, §2, §3

[4] = system: barnyardgrass (Echinochloa crus-galli); conditions: scale 0 to 100; for Plant response rating, Barnyardgrass: Postemergence; for Barnyardgrass plant response rating: Preemergence
Source text: as §1, §2, §3

[5] = system: dayflower (Virginia (VA) dayflower, Commelina virginica); conditions: scale 0 to 100; for Plant response rating, Dayflower, VA: Postemergence; for Dayflower, VA plant response rating: Preemergence
Source text: as §1, §2, §3

[6] = system: waterhemp (common waterhemp, Amaranthus rudis); conditions: scale 0 to 100; for Plant response rating, Waterhemp: Postemergence; for Waterhemp plant response rating: Preemergence
Source text: as §1, §2, §3

[7] = system: palmer pigweed (Amaranthus palmeri); conditions: scale 0 to 100; for Plant response rating, Pigweed, Palmer: Postemergence; for Pigweed, Palmer plant response rating: Preemergence
Source text: as §1, §2, §3

corn (Zea mays) = conditions: scale 0 to 100; for Plant response rating, Corn: Postemergence; for Corn plant response rating: Preemergence
Source text: as §1, §2, §3

[8] = system: sandbur (southern sandbur, Cenchrus echinatus); conditions: scale 0 to 100; for Plant response rating, Sandbur: Postemergence; for Sandbur plant response rating: Preemergence
Source text: as §1, §2, §3

[9] = system: wild poinsettia (Euphorbia heterophylla); conditions: scale 0 to 100; for Plant response rating, Poinsettia, Wild: Postemergence; for Poinsettia, Wild plant response rating: Preemergence
Source text: as §1, §2, §3

[10] = system: Italian ryegrass (Lolium multiflorum); conditions: scale 0 to 100; for Plant response rating, Ryegrass, Italian: Postemergence; for Ryegrass, Italian plant response rating: Preemergence
Source text: as §1, §2, §3

For `O=C(c1ccccc1)c1cn(S(=O)(=O)CCl)nc1-c1cc(Cl)cc(Cl)c1` [Compound 1], the “Plant response rating, Crabgrass, Brazil” value ([1]; 31 g ai/ha) was 0, the “Plant response rating, Crabgrass, Brazil” value ([1]; 62 g ai/ha) was 0 and the “Plant response rating, Crabgrass, Brazil” value ([1]; 125 g ai/ha) was 0. The “Plant response rating, Crabgrass, Brazil” value ([1]; 250 g ai/ha) was 0, the “Plant response rating, Crabgrass, Brazil” value ([1]; 500 g ai/ha) was 0 and the “Plant response rating, Arrowleaf Sida” value ([2]; 31 g ai/ha, scale 0 to 100) was 80. For the same compound, the “Plant response rating, Arrowleaf Sida” value ([2]; 62 g ai/ha, scale 0 to 100) was 90, the “Plant response rating, Arrowleaf Sida” value ([2]; 125 g ai/ha, scale 0 to 100) was 95 and the “Plant response rating, Arrowleaf Sida” value ([2]; 250 g ai/ha, scale 0 to 100) was 95. The “Plant response rating, Arrowleaf Sida” value ([2]; 500 g ai/ha, scale 0 to 100 (0 no effect, 100 complete control)) was 98, the “Arrowleaf Sida plant response rating” value ([2]; 31 g ai/ha, scale 0 to 100) was 20 and the “Arrowleaf Sida plant response rating” value ([2]; 62 g ai/ha, scale 0 to 100) was 25. For the same compound, the “Arrowleaf Sida plant response rating” value ([2]; 125 g ai/ha, scale 0 to 100) was 25, the “Arrowleaf Sida plant response rating” value ([2]; 250 g ai/ha, scale 0 to 100) was 20 and the “Arrowleaf Sida plant response rating” value ([2]; 500 g ai/ha, scale 0 to 100) was 75. For the same compound, the “Plant response rating, Beggarticks” value ([3]; 31 g ai/ha) was 30, the “Plant response rating, Beggarticks” value ([3]; 62 g ai/ha) was 95 and the “Plant response rating, Beggarticks” value ([3]; 125 g ai/ha) was 98. The “Plant response rating, Beggarticks” value ([3]; 250 g ai/ha) was 98, the “Plant response rating, Beggarticks” value ([3]; 500 g ai/ha) was 98 and the “Beggarticks plant response rating” value ([3]; 31 g ai/ha) was 0. For the same compound, the “Beggarticks plant response rating” value ([3]; 62 g ai/ha) was 0, the “Beggarticks plant response rating” value ([3]; 125 g ai/ha) was 0 and the “Beggarticks plant response rating” value ([3]; 250 g ai/ha) was 35. For the same compound, the “Beggarticks plant response rating” value ([3]; 500 g ai/ha) was 35, the “Plant response rating, Soybean” value (soybean (Glycine max); 31 g ai/ha) was 0 and the “Plant response rating, Soybean” value (soybean (Glycine max); 62 g ai/ha) was 0. The “Plant response rating, Soybean” value (soybean (Glycine max); 125 g ai/ha) was 0, the “Plant response rating, Soybean” value (soybean (Glycine max); 250 g ai/ha) was 0 and the “Plant response rating, Soybean” value (soybean (Glycine max); 500 g ai/ha) was 0. The “Soybean plant response rating” value (soybean (Glycine max); 31 g ai/ha) was 0, the “Soybean plant response rating” value (soybean (Glycine max); 62 g ai/ha) was 0 and the “Soybean plant response rating” value (soybean (Glycine max); 125 g ai/ha) was 0. For the same compound, the “Soybean plant response rating” value (soybean (Glycine max); 250 g ai/ha) was 0, the “Soybean plant response rating” value (soybean (Glycine max); 500 g ai/ha) was 0 and the “Plant response rating, Barnyardgrass” value ([4]; 31 g ai/ha) was 0. For the same compound, the “Plant response rating, Barnyardgrass” value ([4]; 62 g ai/ha) was 0, the “Plant response rating, Barnyardgrass” value ([4]; 125 g ai/ha) was 0 and the “Plant response rating, Barnyardgrass” value ([4]; 250 g ai/ha) was 0. The “Plant response rating, Barnyardgrass” value ([4]; 500 g ai/ha) was 0, the “Barnyardgrass plant response rating” value ([4]; 62 g ai/ha) was 0 and the “Barnyardgrass plant response rating” value ([4]; 125 g ai/ha) was 0. For the same compound, the “Barnyardgrass plant response rating” value ([4]; 250 g ai/ha) was 0, the “Barnyardgrass plant response rating” value ([4]; 500 g ai/ha) was 0 and the “Plant response rating, Dayflower, VA” value ([5]; 31 g ai/ha) was 0. The “Plant response rating, Dayflower, VA” value ([5]; 62 g ai/ha) was 0, the “Plant response rating, Dayflower, VA” value ([5]; 125 g ai/ha) was 0 and the “Plant response rating, Dayflower, VA” value ([5]; 250 g ai/ha) was 0. The “Plant response rating, Dayflower, VA” value ([5]; 500 g ai/ha) was 0, the “Dayflower, VA plant response rating” value ([5]; 31 g ai/ha) was 0 and the “Dayflower, VA plant response rating” value ([5]; 125 g ai/ha) was 0. For the same compound, the “Dayflower, VA plant response rating” value ([5]; 250 g ai/ha) was 0, the “Dayflower, VA plant response rating” value ([5]; 500 g ai/ha) was 0 and the “Plant response rating, Waterhemp” value ([6]; 31 g ai/ha) was 65. For the same compound, the “Plant response rating, Waterhemp” value ([6]; 62 g ai/ha) was 90, the “Plant response rating, Waterhemp” value ([6]; 125 g ai/ha) was 98 and the “Plant response rating, Waterhemp” value ([6]; 250 g ai/ha) was 98. For the same compound, the “Plant response rating, Waterhemp” value ([6]; 500 g ai/ha) was 100, the “Waterhemp plant response rating” value ([6]; 31 g ai/ha) was 0 and the “Waterhemp plant response rating” value ([6]; 62 g ai/ha) was 20. The “Waterhemp plant response rating” value ([6]; 125 g ai/ha) was 60, the “Waterhemp plant response rating” value ([6]; 250 g ai/ha) was 60 and the “Waterhemp plant response rating” value ([6]; 500 g ai/ha) was 100. For the same compound, the “Plant response rating, Pigweed, Palmer” value ([7]; 31 g ai/ha) was 50, the “Plant response rating, Pigweed, Palmer” value ([7]; 62 g ai/ha) was 25 and the “Plant response rating, Pigweed, Palmer” value ([7]; 125 g ai/ha) was 75. For the same compound, the “Plant response rating, Pigweed, Palmer” value ([7]; 250 g ai/ha) was 70, the “Plant response rating, Pigweed, Palmer” value ([7]; 500 g ai/ha) was 98 and the “Pigweed, Palmer plant response rating” value ([7]; 31 g ai/ha) was 0. The “Pigweed, Palmer plant response rating” value ([7]; 62 g ai/ha) was 20, the “Pigweed, Palmer plant response rating” value ([7]; 125 g ai/ha) was 25 and the “Pigweed, Palmer plant response rating” value ([7]; 250 g ai/ha) was 20. The “Pigweed, Palmer plant response rating” value ([7]; 500 g ai/ha) was 100, the “Plant response rating, Corn” value (corn (Zea mays); 31 g ai/ha) was 0 and the “Plant response rating, Corn” value (corn (Zea mays); 62 g ai/ha) was 0. The “Plant response rating, Corn” value (corn (Zea mays); 125 g ai/ha) was 0, the “Plant response rating, Corn” value (corn (Zea mays); 250 g ai/ha) was 0 and the “Plant response rating, Corn” value (corn (Zea mays); 500 g ai/ha) was 0. The “Corn plant response rating” value (corn (Zea mays); 31 g ai/ha) was 0, the “Corn plant response rating” value (corn (Zea mays); 62 g ai/ha) was 0 and the “Corn plant response rating” value (corn (Zea mays); 125 g ai/ha) was 0. For the same compound, the “Corn plant response rating” value (corn (Zea mays); 250 g ai/ha) was 0, the “Corn plant response rating” value (corn (Zea mays); 500 g ai/ha) was 0 and the “Plant response rating, Sandbur” value ([8]; 31 g ai/ha) was 0. For the same compound, the “Plant response rating, Sandbur” value ([8]; 62 g ai/ha) was 0, the “Plant response rating, Sandbur” value ([8]; 125 g ai/ha) was 0 and the “Plant response rating, Sandbur” value ([8]; 250 g ai/ha) was 0. The “Plant response rating, Sandbur” value ([8]; 500 g ai/ha) was 0, the “Sandbur plant response rating” value ([8]; 31 g ai/ha) was 0 and the “Sandbur plant response rating” value ([8]; 62 g ai/ha) was 0. For the same compound, the “Sandbur plant response rating” value ([8]; 125 g ai/ha) was 0, the “Sandbur plant response rating” value ([8]; 250 g ai/ha) was 20 and the “Sandbur plant response rating” value ([8]; 500 g ai/ha) was 20. The “Plant response rating, Poinsettia, Wild” value ([9]; 31 g ai/ha) was 0, the “Plant response rating, Poinsettia, Wild” value ([9]; 62 g ai/ha) was 0 and the “Plant response rating, Poinsettia, Wild” value ([9]; 125 g ai/ha) was 0. For the same compound, the “Plant response rating, Poinsettia, Wild” value ([9]; 250 g ai/ha) was 0, the “Plant response rating, Poinsettia, Wild” value ([9]; 500 g ai/ha) was 0 and the “Poinsettia, Wild plant response rating” value ([9]; 31 g ai/ha) was 0. The “Poinsettia, Wild plant response rating” value ([9]; 62 g ai/ha) was 0, the “Poinsettia, Wild plant response rating” value ([9]; 125 g ai/ha) was 0 and the “Poinsettia, Wild plant response rating” value ([9]; 500 g ai/ha) was 0. The “Plant response rating, Ryegrass, Italian” value ([10]; 31 g ai/ha) was 0, the “Plant response rating, Ryegrass, Italian” value ([10]; 62 g ai/ha) was 0 and the “Plant response rating, Ryegrass, Italian” value ([10]; 125 g ai/ha) was 0. For the same compound, the “Plant response rating, Ryegrass, Italian” value ([10]; 250 g ai/ha) was 0, the “Plant response rating, Ryegrass, Italian” value ([10]; 500 g ai/ha) was 0 and the “Ryegrass, Italian plant response rating” value ([10]; 31 g ai/ha) was 0. For the same compound, the “Ryegrass, Italian plant response rating” value ([10]; 62 g ai/ha) was 0, the “Ryegrass, Italian plant response rating” value ([10]; 125 g ai/ha) was 0 and the “Ryegrass, Italian plant response rating” value ([10]; 250 g ai/ha) was 0. For the same compound, the “Ryegrass, Italian plant response rating” value ([10]; 500 g ai/ha) was 0.
